Data reported in PMC5136619, “Crystal structure of bacterial haem importer complex in the inward-facing conformation” (Nature Communications, 2016).

Biological target: T1, BhuUV-T (Burkholderia cenocepacia, UniProt B4EKB5)
T1 construct: gene hmuV; His8-BhuU full length with BhuV, plus haem-free BhuT 40-311 (GST cut off by PreScission) in ATPase assay; GFP-tagged BhuT in pull-down; heteropentamer; with Heme ABC transporter permease BhuU
Experiment: His-tag pull-down, release of GFP-BhuT from immobilized BhuUV
Type: binding
Conditions: 1 mM AMP–PNP, 1 mM MgCl2, 0.15% DM, pH 7.5, on ice; nucleotide site of BhuV

T1 sequence (B4EKB3 entry or part of it): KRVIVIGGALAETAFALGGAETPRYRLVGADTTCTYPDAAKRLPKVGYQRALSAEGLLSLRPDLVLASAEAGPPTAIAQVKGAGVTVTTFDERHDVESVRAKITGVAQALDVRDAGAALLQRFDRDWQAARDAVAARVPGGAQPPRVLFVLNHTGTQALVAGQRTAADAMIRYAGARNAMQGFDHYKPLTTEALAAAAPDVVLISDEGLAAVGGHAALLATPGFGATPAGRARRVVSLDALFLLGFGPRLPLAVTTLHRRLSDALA
T1 sequence (B4EKB4 entry or part of it, further chain): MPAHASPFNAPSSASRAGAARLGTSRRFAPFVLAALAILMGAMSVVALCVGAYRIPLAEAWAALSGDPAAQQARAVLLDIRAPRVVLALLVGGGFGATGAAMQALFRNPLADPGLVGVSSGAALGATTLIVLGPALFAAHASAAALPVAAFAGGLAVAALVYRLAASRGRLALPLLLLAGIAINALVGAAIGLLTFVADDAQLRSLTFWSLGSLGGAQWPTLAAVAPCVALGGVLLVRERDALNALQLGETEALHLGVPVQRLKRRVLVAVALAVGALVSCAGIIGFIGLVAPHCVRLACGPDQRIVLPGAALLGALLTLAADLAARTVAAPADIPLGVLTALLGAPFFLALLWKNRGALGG
T1 sequence (B4EKB5 entry or part of it): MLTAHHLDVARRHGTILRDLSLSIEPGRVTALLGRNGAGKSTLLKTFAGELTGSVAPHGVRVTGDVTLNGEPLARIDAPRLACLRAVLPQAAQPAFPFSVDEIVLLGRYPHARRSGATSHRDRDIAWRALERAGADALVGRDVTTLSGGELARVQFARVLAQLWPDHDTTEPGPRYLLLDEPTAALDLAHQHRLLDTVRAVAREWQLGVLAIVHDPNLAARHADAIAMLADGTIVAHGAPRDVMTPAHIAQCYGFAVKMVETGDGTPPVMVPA

Structure (SMILES): Nc1ncnc2c1ncn2[C@@H]1O[C@H](COP(=O)(O)OP(=O)(O)NP(=O)(O)O)[C@@H](O)[C@H]1O [AMP–PNP]
- His-tag pull-down, release of GFP-BhuT from immobilized BhuUV: both ATP and AMP–PNP caused the dissociation of GFP-BhuT from BhuUV
